Measured values from patent publication US11666541B2, “Systems and methods for feeding sugar alcohol to ruminants during periods of heat stress” (PURINA ANIMAL NUTRITION LLC, priority 2012, dated 2023).

Key:
Type in all cases: in vivo
[1] = test system: heat stressed lactating dairy cattle in a post-peak phase of lactation; test: Example 1: feeding about 100 grams of sorbitol per day to heat stressed lactating dairy cattle in post-peak phase, with and without evaporative cooling
Source text: In the Examples below, statistical analysis was completed for parameters studied such as milk yield, energy corrected milk (ECM), fat corrected milk (FCM), and dry matter intake. A P value of 0.10 means that 10 times out of 100 the results can be explained by factors other than the feeding of sorbitol versus the lack of sorbitol feeding. Likewise, a P value of 0.75 means that 75 times out of 100, the difference in value between the control group and the sorbitol-fed group may be explained by factors other than the feeding of the increased rate(s) of supplemental feed versus the lower rate of feeding of the supplemental feed (e.g., 4 pounds per head per day). For purposes of comparing data in this document, P values of 0.15, or lower, are considered statistically significant. Thus, where a P value of 0.15 or less is returned for particular results, it is assumed that the differing results may be explained by the test regimen, i.e.: the feeding of the increased rate(s) of supplemental feed versus the lower rate of feeding of the supplemental feed (e.g., 4 pounds per head per day). […] In this example, 32 multiparous cows were blocked by production and days in milk into one of two diets, a control diet without sorbitol and a diet with sorbitol, and each treatment group was divided into two cooling treatments. The four treatment groups included 1) a control diet with fans and no mist; 2) a sorbitol-supplemented diet with fans and no mist; 3) a control diet with fans and mist; and 4) a sorbitol-supplemented diet with fans and mist. During the study, the ambient temperature was between 70 degrees and 85 degrees during 51 percent of study and was greater than 85 degrees during 13 percent of the study. Heat stress in the dairy cattle was observed through changes in performance as well as increased respiration rates. Dairy cattle performance and respiration rates for the dairy cattle not receiving mister cooling is compared to dairy cattle receiving mist treatment in Table 1. The sorbitol in the sorbitol-supplemented diets was processed as an extruded pellet and added to other grain concentrates prior to final addition and delivery to the ruminant. [table] [table]

[2] = test system: heat stressed transition dairy cattle; test: Example 2: feeding sorbitol to heat stressed transition dairy cattle (about 150 g/d prior to calving, about 125 g/d after), with and without evaporative cooling
Source text: In this example, the dairy cattle were blocked in the same manner as Example 1. During the study, the ambient temperature was between 70 degrees and 85 degrees during 62 percent of study and was greater than 85 degrees during 18 percent of the study.
After 30 days in milk, all postfresh cows were fed a common diet until 60 days post partum. The nutrient analysis of the total mixed rations for the control and sorbitol diets provided during the study are shown in Table 5C:
As provided in FIGS. 5A and 5B, sorbitol was provided in a base mix at a rate of 1.5 pounds per day for prefresh dairy cattle (e.g., for 28 days prior to calving) and at a rate of 1.25 pounds per day for post fresh dairy cattle (e.g., for 30 days post-calving).
From day 30 to day 60, all dairy cattle study groups received the same diet free of sorbitol (see Table 5).

[3] = test system: dairy cattle in mid-lactation; test: Example 3: feeding sorbitol at about 100 grams per day to dairy cattle in mid-lactation, with and without misters; settings: for 3.5% FCM / Body Weight / Daily Milk Yield / Dry Matter Intake / ECM / Milk Fat / Milk Protein: about 100 g/day
Source text: 64 dairy cattle were separated into four pens of 16 dairy cattle each pen was provided one of the four treatments described above in connection with Example 1. The treatment groups receiving sorbitol in the diet were provided 1 pound of premix per day during a ten week testing period. During the study, the temperature was between 70 degrees and 85 degrees during […] of study and was greater than 85 degrees during 25 percent of the study. […] [table] [table]

[4] = about 100 g sorbitol/day, post-peak, pooled across cooling strategies and day
[5] = sorbitol without mister treatment
[6] = day 0 to 30 postpartum, Misters
[7] = day 0 to 30 postpartum, No Misters
[8] = day 0 to 60 postpartum (sorbitol-free common diet from day 30), Misters
[9] = day 0 to 60 postpartum (sorbitol-free common diet from day 30), No Misters

Structure (SMILES): OC[C@@H](O)[C@@H](O)[C@H](O)[C@@H](O)CO [Sorbitol, sorbitol]
- DMI [1, 4]: 24.7 kg/day
- Daily Milk [1, 4]: 39.4 kg/day
- ECM [1, 4]: 37.2 kg/day
- FCM [1, 4]: 36.8 kg/day
- Fat [1, 4]: 1.23 kg/day
- Fat, % [1, 4]: 3.16%
- Milk to Feed [1, 4]: 1.60
- Protein [1, 4]: 1.12 kg/day
- Protein, % [1, 4]: 2.87%
- Respiration rates [1, 4]: 63.0
- performance: daily milk, ECM, FCM (FIG. 1) ([1]; sorbitol and mister treatment): best overall performance in comparison to all other groups studied
- milk-to-feed ratio (FIG. 3) ([1]; sorbitol group with mister treatment): 1.64 kg of milk for every kg of dry matter consumed
- milk-to-feed ratio (FIG. 3) ([1]; sorbitol group without mister treatment): 1.55 kg of milk for every kg of dry matter consumed
- difference in ECM ([1]; sorbitol group without mister treatment vs control group with misters): 0.3 kg/day
- FCM results vs control ([1]; sorbitol with and without mister treatment): performed better than the control group with mister treatment and significantly better than the control group without mister treatment
- variation of dry matter intake between the two sorbitol groups ([1]; sorbitol with vs without misters): 0.4 kg/day
- ECM results vs control [1, 5]: performed significantly better than the control group without sorbitol and mister treatment
- performance: daily milk, ECM, FCM (FIG. 1) [1, 5]: performed better than the control group without misters in all performance areas
- daily dry matter intake (FIG. 2) ([1]; the other groups (both sorbitol groups and control without misters) vs 28 for control with misters): 25 kg/day
- Body Weight, post [2, 6]: 1259 lbs
- DMI as % BW [2, 6]: 3.05%
- Daily Milk Yield [2, 6]: 78.7 lbs/d
- Dry Matter Intake [2, 6]: 37.8 lbs/d
- ECM [2, 6]: 80.2 lbs/d
- FCM [2, 6]: 80.7 lbs/d
- Milk Fat [2, 6]: 3.53%
- Milk Protein [2, 6]: 2.81%
- Milk-to-Feed Ratio [2, 6]: 2.08
- Body Weight, post [2, 7]: 1232 lbs
- DMI as % BW [2, 7]: 3.03%
- Daily Milk Yield [2, 7]: 74.4 lbs/d
- Dry Matter Intake [2, 7]: 36.8 lbs/d
- ECM [2, 7]: 75.2 lbs/d
- FCM [2, 7]: 75.5 lbs/d
- Milk Fat [2, 7]: 3.42%
- Milk Protein [2, 7]: 2.81%
- Milk-to-Feed Ratio [2, 7]: 2.05
- increase in milk yield compared to the control group without mister treatment ([2]; day 0 to 30 postpartum, sorbitol and mister treatment): about 11.5 pounds per day
- increase in milk yield compared to the control group without mister treatment ([2]; day 0 to 30 postpartum, sorbitol without mister treatment): about 7.2 pounds per day
- Body Weight, post [2, 8]: 1261 lbs
- DMI as % BW [2, 8]: 3.45%
- Daily Milk Yield [2, 8]: 84.3 lbs/d
- Dry Matter Intake [2, 8]: 42.9 lbs/d
- ECM [2, 8]: 79.8 lbs/d
- FCM [2, 8]: 80.4 lbs/d
- Milk - to - Feed [2, 8]: 2.00
- Milk Fat [2, 8]: 3.17%
- Milk Protein [2, 8]: 2.66%
- Milk - to - Feed ([2]; day 0 to 60 postpartum (sorbitol-free common diet from day 30), Misters, listed as sorbitol): 2.0
- Body Weight, post [2, 9]: 1231 lbs
- DMI as % BW [2, 9]: 3.32%
- Daily Milk Yield [2, 9]: 81.2 lbs/d
- Dry Matter Intake [2, 9]: 41.1 lbs/d
- ECM [2, 9]: 77.3 lbs/d
- FCM [2, 9]: 77.7 lbs/d
- Milk - to - Feed [2, 9]: 1.97
- Milk Fat [2, 9]: 3.12%
- Milk Protein [2, 9]: 2.66%
- increase in milk yield compared to the control group without mister treatment ([2]; day 0 to 60 postpartum, sorbitol and mister treatment): about 11.3 pounds per day
- increase in milk yield compared to the control group without mister treatment ([2]; day 0 to 60 postpartum, sorbitol without mister treatment): about 8.2 pounds per day
- beta hydroxy butyrate (BHBA) levels (FIG. 4) ([2]; transition phase, sorbitol groups vs control without misters): control group without mister treatment experienced a spike in BHBA levels compared to the sorbitol groups
- 3.5% FCM ([3]; Misters): 66.7 lbs/d
- Body Weight ([3]; Misters): 1373 lbs
- Daily Milk Yield ([3]; Misters): 73.7 lbs/d
- Dry Matter Intake ([3]; Misters): 49.4 lbs/d
- ECM ([3]; Misters): 68.1 lbs/d
- Milk Fat ([3]; Misters): 2.92%
- Milk Protein ([3]; Misters): 2.92%
- 3.5% FCM ([3]; No Misters): 66.0 lbs/d
- Body Weight ([3]; No Misters): 1393 lbs
- Daily Milk Yield ([3]; No Misters): 71.9 lbs/d
- Dry Matter Intake ([3]; No Misters): 51.2 lbs/d
- ECM ([3]; No Misters): 67.3 lbs/d
- Milk Fat ([3]; No Misters): 3.03%
- Milk Protein ([3]; No Misters): 2.92%
- increase in milk yield compared to the control group without mister treatment ([3]; sorbitol and mister treatment): about 3.5 pounds per day
- increase in milk yield compared to the control group without mister treatment [3, 5]: about 1.7 pounds per day
